Test results: US20240190823A1, “NRF2 INHIBITORS AND USES THEREOF” (Board of Trustees of Michigan State University, priority 2021, published 2024)

How the values were obtained:
A549 cells [1] = assay: In vivo treatment study, subcutaneous A549 xenograft; conditions: for tumor growth (tumor volume): i.p. daily (M-F), compound 1 50 mg/kg BID, carboplatin 5 mg/kg
Experimental: Male athymic nude mice (Harlan Laboratories, 6 week-old) were injected in the flank with 5×10^6 A549 cells. Cell line authenticity and absence of pathogens in the A549 cells were confirmed before establishing the model (I DEXX BioAnalytics). […] All mice were weighed twice a week, and tumors were measured twice a week using a caliper. All mice were sacrificed after 4 weeks of treatment and harvested for analysis of Nrf2 expression and cell proliferation.
Tumors were harvested and fixed in 10% neutral buffered formalin. Sectioned were obtained for immunohistochemistry staining. Sodium citrate buffer (10 mM, Vector) was used for antigen retrieval. 3% hydrogen peroxide (15-minute incubation) was used to quench the endogenous peroxidase activity. Sections were stained with PCNA (1:200, Santa Cruz) or Nrf2 (1:200, Novus Biologicals) antibodies for 1 hour at room temperature or overnight at 4° C., respectively. Anti-mouse and anti-rabbit secondary antibodies conjugated to HRP were purchased from Cell Signaling Technology. Signal was detected using a DAB kit (Cell Signaling Technology) and sections were counterstained with hematoxylin (Vector).

[2] = tested on: A549, H460, A427 and MCF-7 cells; assay: Cell growth assay, MTT, 2D culture, cancer cells; type: cell-based, human; conditions: 72 hours
Experimental: (§1) To evaluate cell proliferation in 2D culture, a MTT assay was performed. Cells were seeded in 96-well plates with 2000 cells/well in their corresponding growth media. […] To assess cell growth in 3D culture, A549, H460 and A427 cells were plated in 0.6% soft agar for 7 days. A Cytation 3 imaging reader from BioTek with Gen5 3.04 software was used to quantify colonies. Seven pictures were taken every 100 μm and superimposed together by z-projection function. Colonies>50 μm in diameter were quantified for each cell line.
(§2) Besides its anti-oxidative properties, Nrf2 also contributes to tumor cell growth. Nrf2 not only regulates cell proliferation as a downstream mediator of several onco-proteins but also reprograms cellular metabolism to favor anabolic pathways.

[3] = tested on: NF-κB pathway proteins (IκBa, NF-κB, p-NF-κB), cyclinG1 and STAT3; assay: Western blotting of other cellular proteins (selectivity); type: cell-based
Experimental: Protein concentrations were measured using the BCA assay (Sigma-Aldrich). 20 μg of protein were separated by 10% SDS-PAGE gels and transferred to nitrocellulose membranes. Nrf2 (Novus Biologicals, 1:1000), NQO1 (Abcam, 1:1000), HO-1 (Abcam, 1:1000), Keap1 (Cell Signaling Technology, 1:1000), NF-κB (Cell Signaling Technology, 1:1000), IκBα (Cell Signaling Technology, 1:1000) Cyclin G1 (Santa Cruz, 35 1:1000), β-TrCP (Cell Signaling Technology, 1:1000), STAT3 (Cell Signaling Technology, 1:1000), Ubiquitin (Cell Signaling Technology, 1:1000), Histone 3 (Cell Signaling Technology, 1:4000), GAPDH (Santa Cruz, 1:4000) and Vinculin (Cell Signaling Technology, 1:4000) primary antibodies were applied to detect the corresponding proteins. Secondary antibodies (anti-rabbit or anti-mouse linked to HRP, 1:1000) were purchased from Cell Signaling Technology. ECL Western blotting substrate (GE Healthcare Life Sciences, UK) was used to detect the signal. […] Protein quantification was done using ImageJ.

MCF-10A cells = assay: Cell growth assay, MTT, MCF-10A cells; type: cell-based; conditions: concentrations<20 μM (data not shown)
Experimental: as §1, §2

[4] = tested on: A549, H460 and A427 cells; assay: Cell growth in 3D culture (0.6% soft agar); type: cell-based, human; conditions: 7 days, dose-dependent
Experimental: as §1, §2

A549 cells [5] = assay: Reactive oxygen species (ROS) assay; conditions: 24 hours, then tBHP for 15 minutes
Experimental: DCFDA (10 μM) was added for 2 hrs as an ROS indicator and then cells were treated with tert-butyl hydroperoxide (tBHP, 250 μM) for 15 minutes before harvesting. Then cells were washed with PBS and trypsinized to a single cell suspension. The cell pellet was resuspended in PBS and analyzed using a flow cytometer (Accuri, BD) with the FLA-1 channel. 50,000 events were acquired for each sample. Mean fluorescence intensity (MFI) was calculated using FlowJo software.

Nrf2 pathway = assay: RT-qPCR of targets downstream of Nrf2 in A549 cells; conditions: 24 hours of treatment
Experimental: Total RNA was isolated using a RNeasy Mini Kit (QIAGEN). RNA concentrations were determined using NanoDrop. For each sample, 500 ng RNA was used to synthesize cDNA with high capacity cDNA reverse transcription kits (AppliedBiosystems). Primers were ordered from IDT. AppliedBiosystems Fast SYBR Green Master Mix and the QuantStudio 7 Flex Real-Time PCR system were used to detect gene expression. The delta-delta Ct method was applied to calculate relative gene expression. Values were normalized to the reference gene GAPDH and expressed as fold change compared to DMSO treated samples.

A549 cells [6] = assay: Chemoresistance assay (Celltiter-glo); conditions: 72 hours
Description: Data was normalized to the DMSO control and presented as a percentage of cell viability. Data represent three independent experiments.

Nrf2 = molecular target: T1, Nrf2 (Homo sapiens, UniProt Q16236); conditions: cited from earlier work
T1 sequence (Q16236 1-605): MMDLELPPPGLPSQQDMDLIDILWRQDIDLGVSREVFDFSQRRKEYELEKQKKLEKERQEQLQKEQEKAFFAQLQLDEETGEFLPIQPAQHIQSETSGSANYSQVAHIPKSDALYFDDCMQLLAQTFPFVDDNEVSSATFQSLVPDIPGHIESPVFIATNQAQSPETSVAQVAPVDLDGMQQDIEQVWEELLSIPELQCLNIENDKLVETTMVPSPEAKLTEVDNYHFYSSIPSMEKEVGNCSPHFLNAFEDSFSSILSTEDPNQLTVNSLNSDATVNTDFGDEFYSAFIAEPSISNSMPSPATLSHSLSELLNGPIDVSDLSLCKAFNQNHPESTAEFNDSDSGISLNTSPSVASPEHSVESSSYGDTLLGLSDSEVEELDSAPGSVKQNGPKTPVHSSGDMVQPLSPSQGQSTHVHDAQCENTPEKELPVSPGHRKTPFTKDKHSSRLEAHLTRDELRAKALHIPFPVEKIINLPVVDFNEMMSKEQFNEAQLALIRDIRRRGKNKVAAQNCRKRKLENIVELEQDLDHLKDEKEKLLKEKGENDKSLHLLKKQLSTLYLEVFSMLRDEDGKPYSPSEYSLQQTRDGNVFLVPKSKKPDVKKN

N.N.O=C([O-])C1(C(=O)[O-])CCC1.[Pt+2] [Carboplatin, carboplatin, reference compound]
tumor growth (tumor volume) (A549 cells [1]; nude mice, four weeks): failed to arrest tumor growth

Cc1cc(C)cc(Nc2nc(C)c(-c3ccccc3)cc2C#N)c1 [Compound 1, 2-((3,5-dimethylphenyl)amino)-6-methyl-5-phenylnicotinonitrile]
expression of Nrf2 protein in the tumors (A549 cells [1]; immunohistochemistry, vs vehicle control group): diminished the expression of Nrf2 protein in the tumors | tolerability / body weight (A549 cells [1]; nude mice, 50 mg/kg BID i.p., four weeks): generally well tolerated in the mice without inducing any changes on body weight over time | tumor growth (tumor volume) (A549 cells [1]; nude mice, four weeks): appeared to slow tumor growth, but the change was not statistically significant | sensitivity of Keap1 mutant (A549, H460) vs Keap1 wildtype (A427, MCF-7) cells ([2]; MTT): higher sensitivity | cell proliferation (MTT) ([2]; Keap1 mutant and Keap1 wild-type cancer cells): inhibited proliferation in various cancer cells | levels of NF-κB pathway proteins and other fast turnover proteins (cyclinG1, STAT3) [3]: did not change levels | overall expression pattern of abundant cellular proteins ([3]; data not shown): did not alter the overall expression pattern of abundant cellular proteins | cell viability of non-tumorigenic epithelial cells (MCF-10A cells): did not have any effects on cell viability | growth in soft agar [4]: significantly (p<0.05) suppressed the growth | ROS production (A549 cells [5]): dose-dependently increased ROS production | mRNA expression of NFE2L2 (Nrf2 pathway): did not affect the mRNA expression of NFE2L2 | mRNA expression of targets downstream of Nrf2 (NQO1, GCLC, GCLM, GST1A1, UGT1A6) (Nrf2 pathway): significantly (p<0.05) decreased the expression of all these downstream genes | effect in combination with chemotherapy drugs (carboplatin, doxorubicin, 5-fluorouracil, topotecan) on cell viability (A549 cells [6]): Additive effects

CCC(=O)O[C@]1(C(=O)CCl)[C@@H](C)C[C@H]2[C@@H]3CCC4=CC(=O)C=C[C@]4(C)[C@@]3(F)[C@@H](O)C[C@@]21C [clobetasol propionate]
mechanism of Nrf2 degradation (Nrf2): promotes βTrCP-dependent degradation of Nrf2

brusatol
time for Nrf2 protein levels to return to basal levels (Nrf2): ≤ 8 h | time of maximum reduction of Nrf2 (Nrf2): 2 to 4 h
